Article PMC10498670

Assays:
[1] = Multicomponent nitrilium-trapping macrocyclisation: Pro NH + EtCHO (1.5 equiv) gives an iminium, Pinc (N-isocyanoimino)triphenylphosphorane (1.2 equiv) adds, C-terminal benzoate traps the nitrilium, then aza-Wittig to the 1,3,4-oxadiazole (18 h); conditions: the molecule shown is the open-chain precursor, 1:1 DCE/MeCN, 25.0 mM, 50.0 °C, 12 steps
[2] = Multicomponent nitrilium-trapping macrocyclisation: Pro NH + EtCHO (1.5 equiv), Pinc2 (ethyl 2-isocyano-2-(triphenylphosphanylidene)acetate, 1.5 equiv), AcOH (0.1 equiv); carboxylate traps the nitrilium, then Wittig to the oxazole (18 h); conditions: the molecule shown is the open-chain precursor, 1:1 DCE/MeCN, 25.0 mM, 50.0 °C, 12 steps

Cc1cccc(NC(=O)CNC(=O)[C@H](CC(C)C)NC(=O)[C@H](C)NC(=O)CNC(=O)[C@@H]2CCCN2)c1C(=O)O [H-Pro-Gly-Ala-Leu-Gly-(2-amino-6-methylbenzoic acid)-OH]
ring closure, overall yield ([1]; 22-membered ring): 18%
ring closure, overall yield ([2]; 22-membered ring, 18.0 h): 0%

CC(C)C[C@H](NC(=O)[C@H](C)NC(=O)CNC(=O)[C@@H]1CCCN1)C(=O)NCC(=O)Nc1ccccc1C(=O)O [H-Pro-Gly-Ala-Leu-Gly-(2-aminobenzoic acid)-OH]
ring closure, overall yield ([1]; 22-membered ring): 15%
ring closure, overall yield ([2]; 22-membered ring, 18.0 h): 0%

Cc1c(NC(=O)CNC(=O)[C@H](CC(C)C)NC(=O)[C@H](C)NC(=O)CNC(=O)[C@@H]2CCCN2)cccc1C(=O)O [H-Pro-Gly-Ala-Leu-Gly-(3-amino-2-methylbenzoic acid)-OH]
ring closure, overall yield ([1]; 23-membered ring): 25%
ring closure, overall yield ([2]; 23-membered ring, 18.0 h): 23%

CC(C)C[C@H](NC(=O)[C@H](C)NC(=O)CNC(=O)[C@@H]1CCCN1)C(=O)NCC(=O)Nc1cccc(C(=O)O)c1 [H-Pro-Gly-Ala-Leu-Gly-(3-aminobenzoic acid)-OH]
ring closure, overall yield ([1]; 23-membered ring): 38%
ring closure, overall yield ([2]; 23-membered ring, 18.0 h): 35%

CC(C)C[C@H](NC(=O)[C@H](C)NC(=O)CNC(=O)[C@@H]1CCCN1)C(=O)NCC(=O)Nc1ccc(C(=O)O)c(Cl)c1 [H-Pro-Gly-Ala-Leu-Gly-(4-amino-2-chlorobenzoic acid)-OH]
ring closure, overall yield ([1]; 24-membered ring): 17%
ring closure, overall yield ([2]; 24-membered ring): 0%

CC(C)C[C@H](NC(=O)[C@H](C)NC(=O)CNC(=O)[C@@H]1CCCN1)C(=O)NCC(=O)Nc1ccc(C(=O)O)cc1 [H-Pro-Gly-Ala-Leu-Gly-(4-aminobenzoic acid)-OH]
ring closure, overall yield ([1]; 24-membered ring): 18%
ring closure, overall yield ([2]; 24-membered ring): 0%

CC(C)C[C@H](NC(=O)CNC(=O)[C@@H]1CCCN1)C(=O)N[C@@H](CC(=O)OC(C)(C)C)C(=O)N[C@H](C(=O)Nc1cccc(C(=O)O)c1)[C@@H](C)OC(C)(C)C [H-Pro-Gly-Leu-Asp(OtBu)-Thr(OtBu)-(3-aminobenzoic acid)-OH]
ring closure, overall yield ([1]; 23-membered ring): 27%
ring closure, overall yield ([2]; 23-membered ring, 18.0 h): 21%
